From publication PMC12320299 (Chemical Science, 2025)

Tests used:
SW480 = system: SW480; parameters: method as in earlier work; settings: 96 h incubation; ref 48 (ESI Ref. 1); cited from earlier work
[1] = Stability in aqueous solution by ESI-MS; assay type: physicochemical; settings: 50 μM, share of total intensity
Procedure: In order to elucidate the transformation products of hydrolysis at micromolar concentrations, the four compounds were analogously incubated at 50 μM and analysed by ESI-MS[34] in a time-dependent manner after 1.5 h, 24 h and 72 h. The four complexes of this series were quite stable over 24 h (ESI, Fig. S12 ^†), but gradually released the NQ-ligands over the course of 72 h, which was observed by the formation of characteristic metal(cymene)-dimers containing pyrazole as bridging ligands. In addition, the observation of the free 3-Morph-NQ ligand after 24 h further supported the previously established activation mechanism (ESI, Fig. S12 ^†). A mass signal, which was probably generated by in-source fragmentation corresponded to pyrazole-release. […] In general, the intensity of the intact compounds after 24 h at 50 μM corresponded to approximately 40% of the total intensity of the mass spectrum in all four cases, not accounting for ionization efficiency (Fig. 2B).
Stability Study by UV-Vis Spectroscopy […]
(§1) 80 µM. The stability of the compounds was monitored in a UV-Vis spectrophotometer (Perkin Elmer lambda 35 photometer) over 96 h by acquiring an UV-Vis spectrum every 30 mins. The percentage of the remaining intact compound was calculated by the ratio of the maximum absorbance of the tridentate complexes’ characteristic absorption band around 350– 370 nm after a given timepoint (A) compared to the one directly after dilution (A0). […]
Samples were diluted to a concentration of 2.5 µM with an organic eluent (49.5% v/v acetonitrile, 49.5% v/v methanol,1% v/v H2O), except ubiquitin containing samples which were diluted to the same concentration with acidified H2O (0.1% v/v formic acid). The samples were then analysed by flow-injection using an amazon speed ETD ion trap (Bruker Daltonics) in the positive ion mode over 0.4 min using the following experimental parameters: HV capillary ±4.5 kV, end plate offset –500 V, dry temp 180 °C, nebulizer 3 bar, dry gas 5 L min-1, scan range m/z 200–1400, target mass m/z 900, flow rate 5 µL min-1. […]

CH1/PA-1 = system: CH1/PA-1; parameters: method as in Ref. 1 (ESI); settings: 96 h incubation; ref Ref. 1 (ESI); cited from earlier work
[2] = Stability study by UV-Vis spectroscopy in PBS (1% DMSO); assay type: physicochemical; settings: 40 μM 1a/2a, 80 μM 1b/2b
Procedure: Stability Study by UV-Vis Spectroscopy
All four compounds were freshly diluted in PBS (1% DMSO) from a DMSO stock solution at […]
as §1

[3] = Reactivity by NMR with 9-ethylguanine and methionine or cysteine; assay type: physicochemical; settings: 1 mM, equimolar nucleophiles, D2O/20% DMSO, up to 24 h
Procedure: Nevertheless, they are activated by hydrolysis of the most labile M–O bond (Fig. 2C).[48] Further hydrolysis releases the NQ ligand, because the free hemiaminal-containing NQ is unstable and the presence of biological nucleophiles accelerated NQ release.[48] […] The samples were analysed on a 500 MHz NMR spectrometer after 0 h, 1.5 h and 24 h. […] The aromatic proton of 9-ethylguanine was consistently found at 7.6 ppm.

| SMILES | IC50 (SW480) [µM] | Intact compound after 24 h, aqueous medium [1] [%] | IC50 (CH1/PA-1) [µM] | intact complex, UV-vis, 24 h [2] [%] | intact complex, UV-vis, 96 h [2] [%] | stability by NMR [3] |
| --- | --- | --- | --- | --- | --- | --- |
| CCC1=C2[O][Ru][O]C2(n2cccn2)c2ccccc2C1=O.Cc1ccc(C(C)C)cc1 (centres unmarked) [Compound 1a, [(3-ethyl-4-oxo-(pyrazolyl)-dihydronaphthalene)(cymene)ruthenium(II)]] | 0.046 ± 0.007 | 42 | 62 ± 5 | 75 | 53 | remained remarkably stable |
| Cc1ccc(C(C)C)cc1.O=C1C(CN2CCOCC2)=C2[O][Ru][O]C2(n2cccn2)c2ccccc21 (centres unmarked) [Compound 1b] | 33 ± 2 | 47 | 150 ± 20 | 76 | 64 |  |
| CCC1=C2[O][Os][O]C2(n2cccn2)c2ccccc2C1=O.Cc1ccc(C(C)C)cc1 (centres unmarked) [Compound 2a] |  | 45 |  | 85 | 61 |  |
